In patent US9585891B2 (MERCK PATENT GMBH, priority 2012, dated 2017) one finds IC50 data, which are given here for nine compounds.

The target in assay [1] is T1, Vanin-1 in SUIT-S2 cell line (Homo sapiens, UniProt O95497).
T1 construct: endogenous in cells; host or cells: SUIT-S2 cell line (ATCC # CRL1596)
T1 sequence (O95497 22-491): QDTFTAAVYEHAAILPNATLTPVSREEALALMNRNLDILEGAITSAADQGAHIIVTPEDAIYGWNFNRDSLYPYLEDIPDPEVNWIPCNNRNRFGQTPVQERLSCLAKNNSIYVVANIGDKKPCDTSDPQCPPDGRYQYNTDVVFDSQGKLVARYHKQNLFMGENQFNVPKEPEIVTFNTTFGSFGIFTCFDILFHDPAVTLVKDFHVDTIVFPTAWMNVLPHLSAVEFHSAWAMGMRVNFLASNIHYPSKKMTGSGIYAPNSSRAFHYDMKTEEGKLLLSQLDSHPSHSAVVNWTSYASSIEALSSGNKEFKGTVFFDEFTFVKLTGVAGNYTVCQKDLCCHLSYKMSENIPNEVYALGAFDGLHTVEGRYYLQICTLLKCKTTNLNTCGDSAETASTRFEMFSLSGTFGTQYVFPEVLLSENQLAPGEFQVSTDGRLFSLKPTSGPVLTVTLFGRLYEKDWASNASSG
The experiment in a line: Vanin-1 cell-based mechanistic assay (fluorescence intensity, Pantothenate-AMC substrate). The settings on record: 40000 cells per well, 2 hours incubation at 37° C., Pantothenate-AMC 30 μM, 30 min. As to the method:
Vanin-1 Cell-Based Mechanistic Assay:
The cellular activity of the examples is measured in 96-well format based on fluorescence intensity assay using SUIT-S2 cell line (ATCC # CRL1596).
Cells are cultured at 37° C. with 5% CO2 to 80-90% confluence and then washed once with phosphate-buffered saline (PBS). Adherent cells are detached with PBS-EDTA and once in suspension 40000 cells are dispensed in 90 μl of PBS in 96-well black plates with clear bottoms. Threefold serial dilutions of test compounds are made in DMSO and then solubilized in PBS, dilution range 1:30. Cells and serial diluted test compounds (final concentrations 10 μM to 4.6 nM) or controls (PBS/0.3% DMSO) are incubated for 2 hours at 37° C. with 5% CO2. The reaction is initiated by the addition of the fluorogenic substrate, Pantothenate-AMC, at a concentration of 30 μM. After 30 minutes of incubation at 30° C. with gentle agitation, fluorescence intensity is measured at λex=350 nm and λem=450 nm with a fluorescence reader (BMG PHERAstar reader or equivalent).

Assay [2] concerns the target T2, Human recombinant Vanin-1 (VNN1) (Homo sapiens, UniProt O95497).
T2 construct: purchased Sino Biological Inc. 11662-H08H
T2 sequence (O95497 22-491): T1 sequence (O95497 22-491)
The experiment in a line: Vanin-1 enzymatic assay (fluorescence intensity, Pantothenate-AMC substrate). The format is biochemical. The following applies: purified recombinant human Vanin-1 0.5 nM; 30 min preincubation at 30° C.; Pantothenate-AMC 30 μM, 60 min. As to the method:
Human recombinant Vanin-1 (VNN1) was purchased from Sino Biological Inc. (Catalog Number: 11662-H08H).
Measurement of VNN1 inhibition is performed in 384-well format based on fluorescence intensity assay. Purified recombinant human Vanin-1 (0.5 nM) and threefold serial diluted compounds in 3% DMSO (range of concentrations from 30 μM to 1.524 nM) or controls (3.0% DMSO) are incubated for 30 minutes at 30° C. with gentle agitation in assay buffer containing 100 mM potassium Phosphate Buffer (KPi), pH 7.5, 0.001% Bovine Serum Albumin (BSA), 0.5 mM dithiothreitol (DTT) and 0.0025% Brij-35. The reaction is initiated by the addition of the fluorogenic substrate, Pantothenate-AMC, at a concentration of 30 μM. After 60 minutes of incubation at 30° C. with gentle agitation, fluorescence intensity is measured at λex=350 nm and λem=450 nm with a fluorescence reader (BMG PHERAstar reader or equivalent).

Some results are limits rather than exact numbers.

Turning to `CC(C)(CO)[C@@H](O)C(=O)NCCC(=O)C(=O)NCc1ccc(C(=O)NCCc2ccc(Oc3ccccc3)cc2)cc1` [Example 32, 4-{[4-((R)-2,4-Dihydroxy-3,3-dimethyl-butrylamino)-2-oxo-butyrylamino]-methyl)-N-[2-(4-phenoxy-phenyl)-ethyl]-benzamide], the IC50 in assay [1] and in assay [2] was under 10 nM in each case.
As for `CC(C)(CO)[C@@H](O)C(=O)NCCC(=O)C(=O)NCc1ccc(S(=O)(=O)N2CCCCC2)cc1` [Example 33, (R)-2,4-Dihydroxy-3,3-dimethyl-N-{3-oxo-3-[4-(piperidine-1-sulfonyl)-benzylcarbamoyl]-propyl}-butyramide], the IC50 in assay [1] and in assay [2] was under 10 nM throughout.
As for `CC(C)(CO)[C@@H](O)C(=O)NCCC(=O)C(=O)NCc1ccc(OCCNS(C)(=O)=O)cc1` [Example 39, (R)-2,4-Dihydroxy-N-(3-[4-(2-methanesulfonylamino-ethoxy)-benzylcarbamoyl]-3-oxo-propyl)-3,3-dimethyl-butyramide], the concentration for half-maximal inhibition (IC50) in assay [1] was under 10 nM; in assay [2] it was 20 nM.
Consider `CC(C)(CO)[C@@H](O)C(=O)NCCNC(=O)CCl` [Example 57, (R)—N-[2-(2-Chloro-acetylamino)-ethyl]-2,4-dihydroxy-3,3-dimethyl-butyramide], for which the IC50 in assay [1] came out at 1110 nM; in assay [2], 2540 nM.
Regarding `CC(C)(CO)[C@@H](O)C(=O)NCCN(CCCc1ccccc1)C(=O)CCl` [Example 58, (R)—N-{2-[(2-Chloro-acetyl)-(3-phenyl-propyl)-amino]-ethyl}-2,4-dihydroxy-3,3-dimethyl-butyramide], the half-maximal inhibitory concentration (IC50) in assay [1] is 220 nM; in assay [2] it was 2480 nM.
For `CC(C)(CO)[C@@H](O)C(=O)NCCN(CCc1ccccc1)C(=O)CCl` [Example 59, (R)—N-{2-[(2-Chloro-acetyl)-phenethyl-amino]-ethyl}-2,4-dihydroxy-3,3-dimethyl-butyramide], the IC50 in assay [1] came to 1200 nM; in assay [2], 4040 nM.
The corresponding values for `CC(C)(CO)[C@@H](O)C(=O)NCCN(Cc1ccccc1)C(=O)CCl` [Example 60, (R)—N-{2-[Benzyl-(2-chloro-acetyl)-amino]-ethyl}-2,4-dihydroxy-3,3-dimethyl-butyramide] are 600 nM and 3570 nM.
Take `CC(C)(CO)[C@@H](O)C(=O)NCCN(CCOc1ccc(C#N)cc1)C(=O)CCl` [Example 61, (R)—N-(2-{(2-Chloro-acetyl)-[2-(4-cyano-phenoxy)-ethyl]-amino}-ethyl)-2,4-dihydroxy-3,3-dimethyl-butyramide]: the concentration for half-maximal inhibition (IC50) in assay [1] turned out to be 220 nM; in assay [2] it was 3280 nM.
On the same counts, the results for `CC(C)(CO)[C@@H](O)C(=O)NCCN(CC1CCN(c2ccc(C#N)cc2)CC1)C(=O)CCl` [Example 62, (R)—N-(2-{(2-Chloro-acetyl)-[1-(4-cyano-phenyl)-piperidin-4-ylmethyl]-amino}-ethyl)-2,4-dihydroxy-3,3-dimethyl-butyramide] are 210 nM and 1360 nM.

Usually IC50 stands for the concentration that inhibits the measured activity by half.
